Assays:
Details in all cases: incubation time: 72 h
Hs578T [1] = assay: normalised response (% of control), CellTiter-Glo; higher = more viable cells (100 = DMSO, 0 = benzethonium chloride kill control)
Method in brief: (§1)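 For each plate, 0.1 % DMSO was set to 100 and a positive kill control to 0. Breast cancer cell lines (20 µl suspension) were seeded into 384-well plates already holding compound at 5 concentrations in 10-fold steps over a 10,000-fold range chosen per compound, and incubated for 72 h. CellTox Green fluorescence at 485/520 nm was read before CellTiter-Glo luminescence, which followed 10 min at room temperature. Each value is the normalised signal at one concentration.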

MDA-MB-453 [2] = assay: as above
Method in brief: as §1

BT-474 [3] = assay: as above
Method in brief: as §1

CAL-85-1 [4] = assay: as above
Method in brief: as §1

BT-549 [5] = assay: as above
Method in brief: as §1

CAL-148 [6] = assay: as above
Method in brief: as §1

MDA-MB-468 [7] = assay: as above
Method in brief: as §1

MDA-MB-436 [8] = assay: as above
Method in brief: as §1

HCC1599 [9] = assay: as above
Method in brief: as §1

CAL-120 [10] = assay: as above
Method in brief: as §1

CAL-51 [11] = assay: as above
Method in brief: as §1

MFM-223 [12] = assay: as above
Method in brief: as §1

MDA-MB-231 [13] = assay: as above
Method in brief: as §1

DU-4475 [14] = assay: as above
Method in brief: as §1

HDQ-P1 [15] = assay: as above
Method in brief: as §1

HCC1937 [16] = assay: as above
Method in brief: as §1

SK-BR-3 = assay: as above
Method in brief: as §1

MCF-10A [17] = assay: as above
Method in brief: as §1

HCC1143 [18] = assay: as above
Method in brief: as §1

Hs578T [19] = assay: normalised response (% of control), CellTox Green; higher = less cell death (100 = DMSO, 0 = benzethonium chloride kill control)
Method in brief: as §1

MDA-MB-453 [20] = assay: as above
Method in brief: as §1

BT-474 [21] = assay: as above
Method in brief: as §1

CAL-85-1 [22] = assay: as above
Method in brief: as §1

BT-549 [23] = assay: as above
Method in brief: as §1

CAL-148 [24] = assay: as above
Method in brief: as §1

MDA-MB-468 [25] = assay: as above
Method in brief: as §1

MDA-MB-436 [26] = assay: as above
Method in brief: as §1

HCC1599 [27] = assay: as above
Method in brief: as §1

CAL-120 [28] = assay: as above
Method in brief: as §1

CAL-51 [29] = assay: as above
Method in brief: as §1

MFM-223 [30] = assay: as above
Method in brief: as §1

MDA-MB-231 [31] = assay: as above
Method in brief: as §1

DU-4475 [32] = assay: as above
Method in brief: as §1

HDQ-P1 [33] = assay: as above
Method in brief: as §1

MCF-10A [34] = assay: as above
Method in brief: as §1

HCC1143 [35] = assay: as above
Method in brief: as §1

HCC1937 [36] = assay: as above
Method in brief: as §1

| SMILES | normalised response (Hs578T [1]) [%] | normalised response (MDA-MB-453 [2]) [%] | normalised response (BT-474 [3]) [%] | normalised response (CAL-85-1 [4]) [%] | normalised response (BT-549 [5]) [%] | normalised response (CAL-148 [6]) [%] | normalised response (MDA-MB-468 [7]) [%] | normalised response (MDA-MB-436 [8]) [%] | normalised response (HCC1599 [9]) [%] | normalised response (CAL-120 [10]) [%] | normalised response (CAL-51 [11]) [%] | normalised response (MFM-223 [12]) [%] | normalised response (MDA-MB-231 [13]) [%] | normalised response (DU-4475 [14]) [%] | normalised response (HDQ-P1 [15]) [%] | normalised response (HCC1937 [16]) [%] | normalised response (SK-BR-3) [%] | normalised response (MCF-10A [17]) [%] | normalised response (HCC1143 [18]) [%] | normalised response (Hs578T [19]) [%] | normalised response (MDA-MB-453 [20]) [%] | normalised response (BT-474 [21]) [%] | normalised response (CAL-85-1 [22]) [%] | normalised response (BT-549 [23]) [%] | normalised response (CAL-148 [24]) [%] | normalised response (MDA-MB-468 [25]) [%] | normalised response (MDA-MB-436 [26]) [%] | normalised response (HCC1599 [27]) [%] | normalised response (CAL-120 [28]) [%] | normalised response (CAL-51 [29]) [%] | normalised response (MFM-223 [30]) [%] | normalised response (MDA-MB-231 [31]) [%] | normalised response (DU-4475 [32]) [%] | normalised response (HDQ-P1 [33]) [%] | normalised response (MCF-10A [34]) [%] | normalised response (HCC1143 [35]) [%] | normalised response (HCC1937 [36]) [%] |
| --- | --- | --- | --- | --- | --- | --- | --- | --- | --- | --- | --- | --- | --- | --- | --- | --- | --- | --- | --- | --- | --- | --- | --- | --- | --- | --- | --- | --- | --- | --- | --- | --- | --- | --- | --- | --- | --- |
| N#CCNC(=O)c1ccc(-c2ccnc(Nc3ccc(N4CCOCC4)cc3)n2)cc1 [Momelotinib] (1000 nM) | 93 | 113 | 77.1 | 92.7 | 89.6 | 85 | 82.5 | 96.9 | 110 | 75.8 | 122 | 93.4 | 77.2 | 90.5 | 107 | 108 | 86.6 | 77 | 91.7 | 99.4 | 108 | 101 | 89.6 | 96.5 | 98.7 | 178 | 103 | 95.9 | 102 | 117 | 99.5 | 100 | 97.7 | 111 | 108 | 113 |  |
| CS(=O)(=O)c1ccc(C2=C(c3ccccc3)C(=O)OC2)cc1 [Rofecoxib] (1000 nM) | 112 | 97 | 101 | 103 | 95.4 | 102 | 103 | 105 | 118 | 103 | 104 | 104 | 107 | 98.8 | 100 | 97 | 116 | 122 | 103 | 108 | 108 | 102 | 112 | 98.2 | 105 | 127 | 99.2 | 100 | 101 | 99.8 | 103 | 112 | 112 | 82 | 118 | 116 | 96 |
| O=C(CCCCCCC(=O)Nc1ccc([C@H]2O[C@@H](CSc3nc(-c4ccccc4)c(-c4ccccc4)o3)C[C@@H](c3ccc(CO)cc3)O2)cc1)NO [Tubacin] (1000 nM) | 95.3 | 70.3 | 91.3 | 72.2 | 89.3 | 95.4 | 61.7 | 94.8 | 93.2 | 88.6 | 77.8 | 78.3 | 81.4 | 91.9 | 88.2 | 82.6 | 95.3 | 105 | 90.2 | 93.4 | 103 | 95.5 | 102 | 114 | 99.9 | -536 | 90.3 | 97.9 | 100 | 93.4 | 86.1 | 88.2 | 101 | 72.7 | 113 | 105 | 55.1 |

Source: the supplement of paper PMC4862054
